What was measured:
PFK1 = PFK1 activity in PMN lysates; type: cell-based, human; settings: for activation-induced reduction in PFK1 activity: neutrophils treated with PMA, LPS, or cholesterol crystals
Description: PFK1 activity assays from neutrophil lysates were modified from Abrantes et al., 2012. Briefly, neutrophils (10^7) were cultured with 0.5 μM NA-11 for 30 min, and then stimulated with 50 nM PMA, 5 μg/mL cholesterol crystals, 10 μg/mL LPS or 25 μM nigericin for 30 min. Cells were lysed in 10 mM PBS, 1% Triton X-100, and 1 x EDTA-free protease inhibitor cocktail on ice for 10 min. The soluble protein lysates were quantified by BCA assay (Pierce) and adjusted to 0.3125 mg/mL with lysis buffer. Lysate (80 μL) was mixed with 100 μL 2x enzyme cocktail solution (100 mM Tris-HCL pH7.4, 10 mM MgCl2, 0.5 mM ATP, 0.3 mM NADH, 1.35 units/mL Aldolase, 10 units/mL Triose phosphate isomerase, 4 units/mL glycerophosphate dehydrogenase, 20 mM ammonium sulfate) equilibrated to reach room temperature for 5 min. 20 μL of Fructose-6-phosphate (40 mM) was added and the reaction monitored for NADH decrease (absorbance at 340 nm) every 30 s for 30 min. Specific activity is in pmoles FBP per min per mg lysate.

PFKL = biological target: T1, PFKL (Homo sapiens, UniProt P17858); assay: Thermal shift of PFKL by immunoblotting in THP-1 lysates; type: binding
T1 construct: endogenous in cells; host or cells: THP-1 cell lysate
T1 sequence (P17858 2-780 limits assumed): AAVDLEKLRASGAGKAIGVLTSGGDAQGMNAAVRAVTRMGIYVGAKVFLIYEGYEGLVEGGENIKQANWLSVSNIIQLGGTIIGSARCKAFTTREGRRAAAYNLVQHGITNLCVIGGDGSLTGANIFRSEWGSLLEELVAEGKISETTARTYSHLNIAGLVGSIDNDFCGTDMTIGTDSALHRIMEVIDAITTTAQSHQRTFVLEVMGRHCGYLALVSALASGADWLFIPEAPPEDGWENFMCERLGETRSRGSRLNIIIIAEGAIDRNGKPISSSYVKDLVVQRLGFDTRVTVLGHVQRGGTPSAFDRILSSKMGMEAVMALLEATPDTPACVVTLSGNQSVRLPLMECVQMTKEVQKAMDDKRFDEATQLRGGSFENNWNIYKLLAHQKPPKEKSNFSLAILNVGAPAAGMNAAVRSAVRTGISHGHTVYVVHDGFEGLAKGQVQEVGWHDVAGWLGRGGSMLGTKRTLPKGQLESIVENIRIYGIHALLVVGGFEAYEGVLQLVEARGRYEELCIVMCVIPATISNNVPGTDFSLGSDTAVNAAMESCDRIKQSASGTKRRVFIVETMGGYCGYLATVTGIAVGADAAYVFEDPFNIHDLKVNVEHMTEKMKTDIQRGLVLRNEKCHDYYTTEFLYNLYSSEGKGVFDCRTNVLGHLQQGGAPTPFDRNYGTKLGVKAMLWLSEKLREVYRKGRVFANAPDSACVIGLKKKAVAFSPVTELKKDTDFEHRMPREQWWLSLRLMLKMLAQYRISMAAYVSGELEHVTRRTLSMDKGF
Description: Figure 2. Chemoproteomic analysis of the global interactors and specific targets of NA-11 (A) Dual chemoproteomic workflow. (B) TPP analysis of neutrophil lysates. Graph plots the ΔTm induced by NA-11 between 37°C and 65°C versus log2(fold change in the area under the melting curve from 44°C to 58°C). Each circle represents a different protein. Top hits with an upward shift in Tm are boxed. p values were determined by paired Student’s t test. (C) Percentage of PMNs undergoing PMA-induced NETosis. Bars show the mean ± SD of cells from three donors. (D) Structures of PALP1 and PALP6. […] Dot size indicates the p values from the affinity pull-downs (paired Student’s t test). […] (F) Western blots of THP-1 lysates heated for 3 min. Graph indicates PFKL band intensities quantified using ImageJ. Data are the mean ± SD of three independent experiments. See also Figures S2 and S3.
We validated the interaction of NA-11 with PFKL in THP-1 cells by immunoblotting PFKL in TPP samples (Figure 2F). […] PDE6δ sustains Ras signaling, which activates the Raf-MEK (mitogen-activated ERK kinase)-ERK (extracellular signal-regulated kinase) pathway ([Chandra et al., 2011]). […] Thus, NA-11 must not inhibit NETosis by compromising the MEK-ERK signaling cascade downstream of PDE6δ.

[1] = system: human bronchial epithelial cells (HBECs); assay: Epithelial barrier tissue damage assay (FITC-dextran); type: cell-based; settings: PMA-activated neutrophils on HBECs
Description: Human bronchial epithelial cells (HBECs) (4 × 10^4 in […] complete PneumaCult-Ex plus medium) were added to a HTS Transwell-96 permeable support plate (polyester membrane with a 0.4 μm pores) and immersed in receiver plates containing 150 μL of complete PneumaCult-Ex plus medium for 3 days. The medium on confluent monolayers was then replaced with RPMI medium containing neutrophils (4 × 10^4) in RPMI buffer that were previously treated with 5 μM NA-11, 100 μM apocynin, 5 μM NA-4, or DMSO vehicle and then activated with 100 nM PMA. The transwell plate was cultured in a new receiver plate containing 150 μL Hank’s balanced salt solution (HBSS) for 2 h. 10 μL of DMEM supplemented with 5% FBS and 2 mM L-glutamine were added to each well and the plate was incubated for additional 18 h. To measure the permeability of the epithelial barrier, FITC-dextran (200 μg/mL) and DNase-1 (22 Units/mL) were added to the apical side for 1 h. FITC-dextran in the receiver plate was measured (ex: 494 em: 521).

SMILES	activation-induced reduction in PFK1 activity (PFK1)	melting temperature of PFKL with compound (PFKL; 55°C ± 1°C without shift) [°C]	thermal shift in PFKL (PFKL; immunoblot) [°C]	effect on PFK1 activity in resting neutrophils (PFK1; resting neutrophils)	protection of epithelial layer from neutrophil-induced oxidative damage [1]
COc1ccccc1-c1cc2n(n1)Cc1ccc(NC(C)=O)cc1OC2 [LDC7559, reference compound]	prevented				
CC(=O)Nc1ccc2c(c1)OCc1cc(-c3ccccc3C#CCCCO)nn1C2 [NA-11]	prevented	59	4	minimal	protected the epithelial layer
